# According to patent US8518383B2, “Oral care products comprising buffer systems for improved mineralization/remineralization benefits” (Wm. Wrigley Jr. Company, priority 2006, dated 2013):
# Assay: in-vitro pH cycling model, enamel microhardness (remineralization efficacy)
# Set-up: species or system human
# Experimental: The purpose of this test was to evaluate in-vitro efficacy of soluble calcium and phosphate combinations. Testing was conducted at the University of Indiana. Enamel specimens (3×3×3 mm diameter window) were removed from extracted human teeth and mounted on acrylic rods. The enamel surface was ground and polished using alumina slurry, rinsed with deionized water, and air dried. Artificial lesions were then formed in the enamel specimens by a 96 hr immersion in a partially saturated HAP acid buffer consisting of 0.1 mM lactic acid and 0.2 wt % Carbopol C907 adjusted to a pH of 5. Four baseline indentations per specimen were placed with a Vickers diamond at a 200 g load for 15 seconds and the indentation lengths had to be in a range from 25-45 microns. Enamel specimens (N=18 per treatment) were then cycled daily through a series of solutions repeated over an 8 day time period. Artificial saliva, acid challenge and pooled whole saliva solutions were prepared fresh daily. After treatment, the enamel microhardness was assessed and the difference between initial and final microhardness was calculated as a measure of remineralization efficacy. The data was then statistically analyzed with overall treatment comparisons calculated using an ANOVA model at α=0.05. Post ANOVA pairwise comparisons were made using a 2 tailed student t-test.
# Artificial saliva with active treatments (1 hr, 4× daily)
# Saliva treatment (0.05 ppm fluoride, 30 min daily)
# Acid challenge (partially saturated HAP acid/carbopol buffer, Ph 5.0, 20 min., 3× daily)
# Saliva film in a humid environment (overnight)
# Comparison of Ca-citrate and Ca-citrate+Phosphate blend vs. Ca-lactate (see FIG. 1)
smiles,measurement,setting,value
CC(O)C(=O)[O-].CC(O)C(=O)[O-].[Ca+2] (stereo not drawn) [Ca-lactate],dose response of enamel rehardening,500 and 1500 ppm,No significant dose response
"O=C([O-])CC(O)(CC(=O)[O-])C(=O)[O-].O=C([O-])CC(O)(CC(=O)[O-])C(=O)[O-].[Ca+2].[Ca+2].[Ca+2] [CaCit (811), Ca Citrate]",ΔVSMH (difference between initial and final enamel microhardness),"Ca 811 ppm (0.38% salt) in artificial saliva, 1 hr 4x daily, 8 day pH cycling, mean, N=18",29.65
same,ΔVSMH (difference between initial and final enamel microhardness),"Ca 811 ppm (0.38% salt) in artificial saliva; 1 hr 4x daily, 8 day pH cycling; mean, N=18; 0.38%)",29.55
same,"enamel rehardening, comparison in words","pairwise comparison of treatment groups, see value",higher enamel rehardening over Ca-lactate
"CC(O)C(=O)[O-].CC(O)C(=O)[O-].O.O.O.O.O.[Ca+2] (stereo not drawn) [CaLac (500), Ca Lactate 5-hydrate]",ΔVSMH (difference between initial and final enamel microhardness),"Ca 500 ppm in artificial saliva, 1 hr 4x daily, 8 day pH cycling, mean, N=18",4.78
"CC(O)C(=O)[O-].CC(O)C(=O)[O-].O.O.O.O.O.[Ca+2] (stereo not drawn) [CaLac (1500), Ca Lactate 5-hydrate]",ΔVSMH (difference between initial and final enamel microhardness),"Ca 1500 ppm in artificial saliva, 1 hr 4x daily, 8 day pH cycling, mean, N=18",5.99
